{"source": "paper PMC11555678", "about": "“Improved Broad Spectrum Antifungal Drug Synergies with Cryptomycin, a Cdc50-Inspired Antifungal Peptide” (ACS Infectious Diseases, 2024)", "key": {"Cn H99": {"test_system": "Cn H99", "test": "microbe, parasite or virus in culture", "type": "cell-based, Cryptococcus neoformans", "details": "for MIC: 37 °C, 48 h", "experimental": "(§1) Previous studies have shown that modifying microbiological media with salts such as CaCl2 can have a drastic effect on the growth of fungi and their responses to antifungals.[19],[35] In the case of CaCl2, the divalent cation, Ca^2+, is involved in fungal cell stress response. To understand how the peptide activity may involve calcium and stress response, the MICs of KKOO, KKOO-NH2, FLC, and CAS were assessed as a function of the calcium concentration in liquid YPD media. It was observed that calcium enrichment completely desensitized the wild-type strain to KKOO and KKOO-NH2, Tables 7 and 8, respectively. Effects of calcium enrichment on the susceptibility of Cryptococcus to CAS similar to literature values were recorded, Supporting Information, Table S7.[35]\n(§2) In order to control for the effects of enriching YPD with a divalent cation, MICs and ROS production were also measured as a function of the MgCl2 supplement at the same millimolar concentrations of cation as in the CaCl2-modified experiments. […] No peptide susceptibility changes were observed against Cn cdc50Δ in magnesium-enriched media, Table S9. ROS production in H99 induced by peptide exposure was inhibited after 30 min of treatment in the magnesium-enriched condition, similar to the levels observed in the calcium-enriched media at 16 μg/mL KKOO-NH2, Figure S1. […] The link between peptide activity and calcium homeostasis may be vital in understanding precisely how the peptide kills fungal cells and requires more research to elucidate.\n(§3) All microdilution assays with fungi were carried out in accordance with CLSI protocols from M27 for yeasts and M38 for filamentous fungi, respectively, unless otherwise specified.[64],[65] Briefly, 96-well plates were charged with RPMI1640 media, with operating volume in the first column, 200 μL, and half operating volume, 100 μL, in the remaining wells. Drug stock solution in DMSO was aliquoted into the first well in each row. Half of the volume in the dosed well was serially diluted 2-fold until column 11. Column 11 was used as the negative growth control, and column 12 was used as the positive growth control. ON yeast cultures in YPD were washed twice in DD-H2O, resuspended in PBS, and adjusted to 5000 cfu/mL in RPMI. The 96-well plate was inoculated with 100 μL aliquots of cell suspension per well. Plates were incubated at 37 °C for 2 days."}, "Cn cdc50Δ": {"test_system": "Cn cdc50Δ", "test": "microbe, parasite or virus in culture", "type": "cell-based, Cryptococcus neoformans", "details": "for MIC: 37 °C, 48 h", "experimental": "as §1, §2, §3"}}, "note": "Square brackets hold non-standard residues; d marks the D form. Peptide text beside a SMILES is read from it. * marks the point of attachment. Myristoyl = CCCCCCCCCCCCCC(=O)*; Orn = NCCC[C@H](N)C(=O)O"}
{"smiles": "CCCCCCCCCCCCCC(=O)N[C@@H](Cc1c[nH]c2ccccc12)C(=O)NCC(=O)NCC(=O)N[C@H](C(=O)N[C@@H](CCCN)C(=O)N[C@@H](CCCN)C(=O)N[C@@H](CC(N)=O)C(=O)N[C@@H](Cc1ccc(O)cc1)C(=O)N[C@@H](C)C(N)=O)[C@@H](C)CC", "note": "[KKOO-NH2] (Myristoyl-WGGI[Orn][Orn]NYA-NH2)", "values": [{"measurement": "MIC", "setting": "Cn H99; YPD + 0 mM Ca2+", "value": 8, "unit": "µg/mL"}, {"measurement": "MIC", "setting": "Cn H99; YPD + 0 mM Mg2+", "value": 8, "unit": "µg/mL"}, {"measurement": "increase of MIC", "setting": "Cn H99; YPD +0 to +2.5 mM CaCl2", "value": 16, "unit": "fold"}, {"measurement": "increase of MIC", "setting": "Cn H99; YPD +0 to +20 mM MgCl2", "value": 4, "unit": "fold"}, {"measurement": "MIC", "setting": "Cn H99; YPD + 2.5 mM Ca2+", "value": 128, "unit": "µg/mL"}, {"measurement": "MIC", "setting": "Cn H99; YPD + 2.5 mM Mg2+", "value": 8, "unit": "µg/mL"}, {"measurement": "MIC", "setting": "Cn H99; YPD + 5 mM Ca2+", "value": ">128", "unit": "µg/mL"}, {"measurement": "MIC", "setting": "Cn H99; YPD + 5 mM Mg2+", "value": 16, "unit": "µg/mL"}, {"measurement": "MIC", "setting": "Cn H99; YPD + 10 mM Ca2+", "value": ">128", "unit": "µg/mL"}, {"measurement": "MIC", "setting": "Cn H99; YPD + 10 mM Mg2+", "value": 16, "unit": "µg/mL"}, {"measurement": "MIC", "setting": "Cn H99; YPD + 20 mM Ca2+", "value": ">128", "unit": "µg/mL"}, {"measurement": "MIC", "setting": "Cn H99; YPD + 20 mM Mg2+", "value": 32, "unit": "µg/mL"}, {"measurement": "MIC", "setting": "Cn cdc50Δ; YPD + 0 mM Ca2+", "value": 2, "unit": "µg/mL"}, {"measurement": "MIC", "setting": "Cn cdc50Δ; YPD + 0 mM Mg2+, unit inferred", "value": 4, "unit": "µg/mL"}, {"measurement": "increase of MIC (largest deviation)", "setting": "Cn cdc50Δ; YPD +0 to +5 mM CaCl2", "value": 4, "unit": "fold"}, {"measurement": "MIC", "setting": "Cn cdc50Δ; YPD + 2.5 mM Ca2+", "value": 4, "unit": "µg/mL"}, {"measurement": "MIC", "setting": "Cn cdc50Δ; YPD + 2.5 mM Mg2+, unit inferred", "value": 4, "unit": "µg/mL"}, {"measurement": "MIC", "setting": "Cn cdc50Δ; YPD + 5 mM Ca2+", "value": 8, "unit": "µg/mL"}, {"measurement": "MIC", "setting": "Cn cdc50Δ; YPD + 5 mM Mg2+, unit inferred", "value": 4, "unit": "µg/mL"}, {"measurement": "MIC", "setting": "Cn cdc50Δ; YPD + 10 mM Ca2+", "value": 8, "unit": "µg/mL"}, {"measurement": "MIC", "setting": "Cn cdc50Δ; YPD + 10 mM Mg2+, unit inferred", "value": 4, "unit": "µg/mL"}, {"measurement": "MIC", "setting": "Cn cdc50Δ; YPD + 20 mM Ca2+", "value": 4, "unit": "µg/mL"}, {"measurement": "MIC", "setting": "Cn cdc50Δ; YPD + 20 mM Mg2+, unit inferred", "value": 4, "unit": "µg/mL"}]}
